This is an account of results in publication PMC11617094 (Molecular Biology of the Cell, 2024).

For series [1], the target named is T1, Alp7A (Bacillus subtilis, UniProt C7F6X5).
T1 construct: untagged native Alp7A encoded by plasmid pLS20, codon-optimised gene in pET28a (NcoI/HindIII), expressed in E. coli C43, purified by a polymerization cycle and gel filtration; forms two-stranded filaments
T1 sequence (C7F6X5 1-391): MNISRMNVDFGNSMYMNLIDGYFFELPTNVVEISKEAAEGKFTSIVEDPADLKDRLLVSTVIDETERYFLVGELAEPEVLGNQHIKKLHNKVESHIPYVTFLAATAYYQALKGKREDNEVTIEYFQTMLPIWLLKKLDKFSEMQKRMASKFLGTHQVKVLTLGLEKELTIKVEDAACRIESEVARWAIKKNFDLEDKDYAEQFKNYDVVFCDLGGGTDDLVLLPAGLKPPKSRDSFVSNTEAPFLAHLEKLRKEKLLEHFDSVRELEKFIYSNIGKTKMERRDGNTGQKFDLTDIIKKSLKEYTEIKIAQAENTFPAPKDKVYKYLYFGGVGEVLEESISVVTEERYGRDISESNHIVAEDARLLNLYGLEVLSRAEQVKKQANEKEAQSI
Kind of series: EnzChek phosphate release (ATPase on polymerization). It counts as biochemical. The following applies: 10 mM ATP/Mg, 25 mM Tris pH 7.5, 100 mM KCl, 1 mM MgCl2, 1 mM DTT; no Alp7R.

The target in series [2] is T2, Alp7A (Bacillus subtilis, UniProt C7F6X5, E180A).
T2 construct: untagged native Alp7A encoded by plasmid pLS20, codon-optimised gene in pET28a (NcoI/HindIII), expressed in E. coli C43, purified by a polymerization cycle and gel filtration; forms two-stranded filaments
Kind of series: right-angle light scattering of ATP-induced polymerization; phosphate release. The following applies: Mg-ATP 3 mM (polymerization) or 10 mM (phosphate release), 25 mM Tris pH 7.5, 100 mM KCl, 1 mM MgCl2, 1 mM DTT; nucleotide-binding pocket mutant.

The target in series [3] is Alp7A (wild type, native, unlabelled) (Bacillus subtilis (plasmid pLS20)) (UniProt C7F6X5).
Series [4] concerns the molecule itself. Kind of series: negative-stain electron microscopy; polymers formed with 3 mM ATP/Mg++, adsorbed to carbon-coated grids, 0.75% uranyl formate; buffer as for light scattering.

Numbering of substitutions follows the chain as printed. Names and notes keep the numbering of the source.

T2 sequence (C7F6X5 entry or part of it E180A): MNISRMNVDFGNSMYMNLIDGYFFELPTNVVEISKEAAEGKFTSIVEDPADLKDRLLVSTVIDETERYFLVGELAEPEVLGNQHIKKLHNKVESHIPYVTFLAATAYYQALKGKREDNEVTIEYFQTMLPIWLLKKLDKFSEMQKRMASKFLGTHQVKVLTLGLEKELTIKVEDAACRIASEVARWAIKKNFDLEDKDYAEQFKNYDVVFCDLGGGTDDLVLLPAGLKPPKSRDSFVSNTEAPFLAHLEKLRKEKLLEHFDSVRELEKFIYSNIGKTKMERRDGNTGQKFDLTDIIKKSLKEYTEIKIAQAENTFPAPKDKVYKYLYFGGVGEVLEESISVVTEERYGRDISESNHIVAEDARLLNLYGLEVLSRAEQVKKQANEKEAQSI

`Nc1ncnc2c1ncn2[C@@H]1O[C@H](COP(=O)(O)OP(=O)(O)OP(=O)(O)O)[C@@H](O)[C@H]1O` [ATP]: the “EnzChek phosphate release (ATPase on polymerization)” value on Alp7A [1] was “phosphate dissociates rapidly from wild-type Alp7A polymers”. Also, the “right-angle light scattering of ATP-induced polymerization; phosphate release” value on Alp7A [2] is reported as “addition of Mg-ATP to purified Alp7A-E180A induces formation of stable polymers”.

In turn, “Alp7A (wild type, native, unlabelled) (from UniProt C7F6X5 1-391) (natural protein)” came in with a concentration threshold of the specific ATPase activity (steady-state phosphate release) of Alp7A, taken as the critical concentration for elongation (ccE) in series [3] of 0.6 µM.

B1: Alp7A-E180A (hydrolysis-dead mutant, unlabelled) (natural protein, Bacillus subtilis (plasmid pLS20), UniProt C7F6X5 1-391, looked up)
chain: T1 sequence (C7F6X5 1-391) with E180A
B1: in series [4], the binding result was “binds”.
